Measurements reported in US7645583B2, “Identification of compounds for inhibiting complexation of C-reactive protein with fibronectin” (Kimberly-Clark Worldwide, Inc., priority 2005, dated 2010).

Target: CRP/Fn binding (CRP captured on immobilized CRP antibody, Fn injected) (Homo sapiens, UniProt P02741+P02751)
Assay: SPR (Biacore X) in vitro model of the inhibitory effect of test compounds on CRP/Fn binding
Design: 10 μL of CRP antigen 6 (50 μg/mL) was injected in flow channel 2
Conditions: for inhibitory effect on CRP/Fn binding (in words): at the conditions of Table 3; for SPR Response (RU): control without inhibitor 118 RU
Method: An in vitro model was designed to determine inhibitory effect of several different test compounds on CRP/Fn binding. Surface plasmon resonance (SPR) measurements were performed using a Biacore® X system and amine coupling kit for immobilization. […] All experiments were performed at 25° C., unless otherwise specified. The SPR technology used is based on optical phenomena in which the measured response depends on a change in refractive index in the close vicinity of the sensor chip surface. The response in such systems is proportional to the mass of analyte bound to the surface. The SPR method was used to monitor continuous analysis over the course of the interaction. […] (catalog number A58110228P), which specifically binds to calcium/phosphocholine site of CRP, was immobilized on a surface of a sensor chip 23 (CM5, carboxyl functionalized) via amine coupling chemistry as is generally known in the art. Following immobilization of the antibody to the surface of the chip 23, 10 μL of CRP antigen 6 (50 μg/mL) was injected in flow channel 2. Following this injection, 60 μL of an Fn solution 8 was injected into both flow channel 1 and flow channel 2 for two minutes duration (association phase), followed by 2 minutes delay time (dissociation phase). […] The process was repeated with an Fn solution including no inhibitor material as a control as well as several Fn solutions including various inhibitor compounds as herein described. Fn concentration was 1 mg/mL in all solutions.

[1] = inhibitor 50 μM, Fn 1 mg/mL, 25° C.
[2] = inhibitor 50 μM, Fn 1 mg/mL, 25° C., relative to control without inhibitor

Sequence of CRP/Fn binding (CRP captured on immobilized CRP antibody, Fn injected) (P02741 19-224): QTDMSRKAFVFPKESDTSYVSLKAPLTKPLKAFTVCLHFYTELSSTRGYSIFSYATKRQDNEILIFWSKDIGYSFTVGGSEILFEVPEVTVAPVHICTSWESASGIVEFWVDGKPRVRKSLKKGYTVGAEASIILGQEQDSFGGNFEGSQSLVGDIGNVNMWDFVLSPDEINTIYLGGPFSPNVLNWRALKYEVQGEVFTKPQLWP
Sequence of CRP/Fn binding (CRP captured on immobilized CRP antibody, Fn injected) (P02751 32-2477): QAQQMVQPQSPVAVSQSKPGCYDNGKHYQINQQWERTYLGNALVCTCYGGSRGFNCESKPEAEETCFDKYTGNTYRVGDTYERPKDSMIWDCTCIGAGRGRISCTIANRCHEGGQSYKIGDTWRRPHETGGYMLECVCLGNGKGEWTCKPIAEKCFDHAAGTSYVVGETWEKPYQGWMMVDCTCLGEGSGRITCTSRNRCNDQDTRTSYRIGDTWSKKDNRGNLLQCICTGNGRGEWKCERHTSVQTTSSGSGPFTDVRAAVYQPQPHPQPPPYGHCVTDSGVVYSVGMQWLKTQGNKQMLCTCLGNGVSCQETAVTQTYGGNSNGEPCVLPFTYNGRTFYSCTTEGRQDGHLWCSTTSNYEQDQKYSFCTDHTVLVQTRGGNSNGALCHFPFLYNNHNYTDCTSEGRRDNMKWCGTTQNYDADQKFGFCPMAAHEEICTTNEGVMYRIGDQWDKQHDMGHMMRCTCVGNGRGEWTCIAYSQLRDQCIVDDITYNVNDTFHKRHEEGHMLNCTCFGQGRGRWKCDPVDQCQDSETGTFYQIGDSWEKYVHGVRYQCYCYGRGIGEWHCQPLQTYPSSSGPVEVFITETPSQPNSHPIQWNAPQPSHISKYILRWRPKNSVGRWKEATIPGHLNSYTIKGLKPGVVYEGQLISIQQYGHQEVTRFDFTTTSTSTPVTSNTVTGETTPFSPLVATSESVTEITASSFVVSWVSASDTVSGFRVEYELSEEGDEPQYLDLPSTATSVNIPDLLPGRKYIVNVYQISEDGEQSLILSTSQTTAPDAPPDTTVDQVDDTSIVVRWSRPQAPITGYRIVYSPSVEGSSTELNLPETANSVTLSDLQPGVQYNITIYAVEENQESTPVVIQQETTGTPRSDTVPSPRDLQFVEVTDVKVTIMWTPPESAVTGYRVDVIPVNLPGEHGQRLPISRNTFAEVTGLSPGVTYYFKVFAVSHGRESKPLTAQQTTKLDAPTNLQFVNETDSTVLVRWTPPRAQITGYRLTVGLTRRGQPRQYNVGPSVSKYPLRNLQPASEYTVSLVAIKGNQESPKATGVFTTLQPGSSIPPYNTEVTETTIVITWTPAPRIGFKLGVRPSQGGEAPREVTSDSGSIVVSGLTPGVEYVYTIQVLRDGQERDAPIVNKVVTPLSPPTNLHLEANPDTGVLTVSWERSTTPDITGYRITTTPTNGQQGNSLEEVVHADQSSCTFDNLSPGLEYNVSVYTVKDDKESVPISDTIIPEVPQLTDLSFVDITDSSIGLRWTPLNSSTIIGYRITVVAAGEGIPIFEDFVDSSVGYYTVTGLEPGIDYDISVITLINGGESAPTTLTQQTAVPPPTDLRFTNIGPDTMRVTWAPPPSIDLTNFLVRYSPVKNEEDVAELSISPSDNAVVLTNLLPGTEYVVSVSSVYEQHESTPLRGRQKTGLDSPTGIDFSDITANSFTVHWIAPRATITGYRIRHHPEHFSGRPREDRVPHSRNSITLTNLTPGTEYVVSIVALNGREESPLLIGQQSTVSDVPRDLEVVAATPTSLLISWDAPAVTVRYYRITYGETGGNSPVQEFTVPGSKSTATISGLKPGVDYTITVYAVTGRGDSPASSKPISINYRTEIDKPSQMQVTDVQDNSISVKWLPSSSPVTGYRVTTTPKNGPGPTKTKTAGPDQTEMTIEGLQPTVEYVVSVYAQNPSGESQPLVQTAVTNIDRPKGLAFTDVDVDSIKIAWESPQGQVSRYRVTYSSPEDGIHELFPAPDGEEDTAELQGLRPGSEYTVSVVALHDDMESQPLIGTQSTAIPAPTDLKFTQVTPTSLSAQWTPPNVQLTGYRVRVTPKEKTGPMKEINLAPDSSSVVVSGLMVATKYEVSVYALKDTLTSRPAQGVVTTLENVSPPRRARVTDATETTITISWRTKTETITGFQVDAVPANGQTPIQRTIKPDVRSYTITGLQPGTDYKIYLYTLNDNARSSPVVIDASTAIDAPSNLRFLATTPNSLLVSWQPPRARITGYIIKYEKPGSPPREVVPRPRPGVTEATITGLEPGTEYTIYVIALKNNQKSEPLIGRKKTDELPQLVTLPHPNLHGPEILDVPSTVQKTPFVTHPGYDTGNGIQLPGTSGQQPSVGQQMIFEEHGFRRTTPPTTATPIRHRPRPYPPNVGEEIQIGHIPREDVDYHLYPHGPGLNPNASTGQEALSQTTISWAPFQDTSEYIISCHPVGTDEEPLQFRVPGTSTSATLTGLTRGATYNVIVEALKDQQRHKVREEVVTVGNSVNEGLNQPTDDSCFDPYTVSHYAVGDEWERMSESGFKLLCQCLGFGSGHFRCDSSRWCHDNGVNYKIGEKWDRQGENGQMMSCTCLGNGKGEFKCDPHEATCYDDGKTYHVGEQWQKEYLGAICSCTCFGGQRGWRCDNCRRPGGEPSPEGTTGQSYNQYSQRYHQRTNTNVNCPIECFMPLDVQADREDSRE

## C=C1C[C@]23C[C@@]1(O)CC[C@H]2[C@@]12C=C[C@H](O)[C@@](C)(C(=O)O1)[C@H]2[C@@H]3C(=O)O [Gibberellic acid, gibberellic acid]
  inhibitory effect on CRP/Fn binding (in words): somewhat less inhibitory effect
Inhibitor 200 μM, Fn 1 mg/mL, 25° C.
  SPR Response (RU): 90 RU
Inhibitor 200 μM, Fn 1 mg/mL, 25° C., relative to control without inhibitor
  inhibition at 200 µM: 23.7%

## CC/C=C\C[C@H]1C(=O)CC[C@@H]1CC(=O)O [Jasmonic acid, jasmonic acid]
  inhibitory effect on CRP/Fn binding (in words): somewhat less inhibitory effect
Inhibitor 40 μM, Fn 1 mg/mL, 25° C.
  SPR Response (RU): 94 RU
Inhibitor 40 μM, Fn 1 mg/mL, 25° C., relative to control without inhibitor
  % Inhibition: 20.4%

## 10-mer: 10-mer polypeptide of SEQ ID NO.:12, exemplary inhibitor of CRP/Fn complexation (NYNFFPRKPK; listed as Homo sapiens)
  inhibitory effect on CRP/Fn binding (in words): somewhat less inhibitory effect
[1]
  SPR Response (RU): 76 RU
[2]
  % Inhibition: 35.6%

## 9-mer: 9 mer segment of SEQ ID NO.:11, specifically the first nine amino acids of SEQ ID NO.:11 (PRCGNPDVA; listed as Homo sapiens)
  inhibitory effect on CRP/Fn binding (in words): no significant effect
[1]
  SPR Response (RU): 119 RU
[2]
  % Inhibition: 0.0%
